Laboratory results published in US8415469B2, “Compounds and methods for kinase modulation, and indications therefor” (Plexxikon Inc., priority 2005, dated 2013).

What was measured:
Assay type in all cases: biochemical
[1] = target: T1, B-Raf (Homo sapiens, UniProt P15056); assay: AlphaScreen kinase assay, B-Raf; details: read-out: IC50, activity toward kinase B-Raf
T1 construct: purchased Upstate Biotechnology

[2] = target: T2, B-Raf V600E (Homo sapiens, UniProt P15056, V600E); assay: AlphaScreen kinase assay, B-Raf V600E; details: read-out: IC50, activity toward kinase B-Raf V600E
T2 construct: P4254. pFastBacBD-CDC37 BRAF D437-K722-X, V600E; His6 with pFastBac HT leader (TEV site) (N); made in house; host or cells: Sf9 (baculovirus; chaperone CDC37 co-expressed)
T2 sequence (P15056 with tags, fused parts or gaps V600E): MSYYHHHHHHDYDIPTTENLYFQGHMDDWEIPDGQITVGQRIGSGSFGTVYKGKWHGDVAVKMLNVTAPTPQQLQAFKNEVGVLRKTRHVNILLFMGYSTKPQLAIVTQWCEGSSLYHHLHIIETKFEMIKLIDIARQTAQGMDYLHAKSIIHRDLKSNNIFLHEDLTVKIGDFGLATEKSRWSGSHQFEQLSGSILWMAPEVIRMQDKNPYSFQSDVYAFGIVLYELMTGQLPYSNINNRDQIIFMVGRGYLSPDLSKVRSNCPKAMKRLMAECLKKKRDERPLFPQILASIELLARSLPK

[3] = target: T3, c-Raf-1 (Homo sapiens, UniProt P04049); assay: AlphaScreen kinase assay, c-Raf-1; details: read-out: IC50, activity toward kinase c-Raf-1
T3 construct: purchased Upstate Biotechnology
T3 sequence (P04049 whole entry): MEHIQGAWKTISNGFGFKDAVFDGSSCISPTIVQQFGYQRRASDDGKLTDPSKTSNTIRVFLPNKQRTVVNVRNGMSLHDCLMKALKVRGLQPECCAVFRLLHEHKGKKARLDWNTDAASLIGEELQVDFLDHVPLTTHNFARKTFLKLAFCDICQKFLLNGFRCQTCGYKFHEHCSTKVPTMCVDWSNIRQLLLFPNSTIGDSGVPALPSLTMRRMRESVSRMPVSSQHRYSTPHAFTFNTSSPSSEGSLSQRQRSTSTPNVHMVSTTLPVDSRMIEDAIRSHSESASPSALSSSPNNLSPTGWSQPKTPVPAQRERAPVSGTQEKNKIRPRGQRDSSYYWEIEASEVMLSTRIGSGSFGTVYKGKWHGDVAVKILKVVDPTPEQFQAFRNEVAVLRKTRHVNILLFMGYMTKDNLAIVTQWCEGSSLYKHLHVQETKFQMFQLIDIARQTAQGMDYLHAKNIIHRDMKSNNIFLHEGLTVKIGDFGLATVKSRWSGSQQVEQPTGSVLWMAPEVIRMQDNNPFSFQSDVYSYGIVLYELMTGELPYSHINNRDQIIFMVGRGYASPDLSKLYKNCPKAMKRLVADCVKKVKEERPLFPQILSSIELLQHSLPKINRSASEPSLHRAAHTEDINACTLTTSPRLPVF

[4] = target: T4, FGFR1 (Homo sapiens, UniProt P11362, C488A/C584S); assay: AlphaScreen kinase assay, FGFR1; details: read-out: IC50, activity toward kinase FGFR
T4 construct: P1351.pET N6 BI-PTP FGFR A458-E765-X C488A, C584S; made in house; host or cells: E. coli (PTP1B co-expressed)
T4 sequence (P11362 458-765 C488A/C584S): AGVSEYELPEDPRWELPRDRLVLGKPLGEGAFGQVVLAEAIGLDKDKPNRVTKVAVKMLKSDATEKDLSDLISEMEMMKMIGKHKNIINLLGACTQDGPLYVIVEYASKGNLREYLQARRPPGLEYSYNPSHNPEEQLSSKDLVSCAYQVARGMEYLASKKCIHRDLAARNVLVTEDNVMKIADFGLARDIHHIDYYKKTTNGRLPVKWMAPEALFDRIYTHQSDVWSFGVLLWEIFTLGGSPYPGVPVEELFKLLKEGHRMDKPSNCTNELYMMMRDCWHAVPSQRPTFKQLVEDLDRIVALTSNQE

[5] = target: T5, Flt1 (Homo sapiens, UniProt P17948); assay: AlphaScreen kinase assay, Flt1; details: read-out: IC50, activity toward kinase Flt1
T5 construct: P1826.pETN6 BI-PTP FLT1 M799-D1165-X WT; His6 (N); made in house; host or cells: E. coli (PTP1B co-expressed)
T5 sequence (P17948 with tags, fused parts or gaps): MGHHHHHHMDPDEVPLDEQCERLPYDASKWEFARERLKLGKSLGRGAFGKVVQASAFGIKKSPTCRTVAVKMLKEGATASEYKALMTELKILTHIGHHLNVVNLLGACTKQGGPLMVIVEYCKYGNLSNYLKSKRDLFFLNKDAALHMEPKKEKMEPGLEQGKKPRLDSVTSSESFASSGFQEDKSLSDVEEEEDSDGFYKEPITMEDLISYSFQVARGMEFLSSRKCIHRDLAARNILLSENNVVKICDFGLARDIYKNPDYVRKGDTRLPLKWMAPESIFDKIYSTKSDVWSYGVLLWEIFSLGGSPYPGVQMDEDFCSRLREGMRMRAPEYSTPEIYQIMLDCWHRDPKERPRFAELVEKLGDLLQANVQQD

[6] = target: T6, Fms (Homo sapiens, UniProt P07333); assay: AlphaScreen kinase assay, Fms; details: read-out: IC50, activity toward kinase Fms
T6 construct: purchased Upstate Biotechnology
T6 sequence (P07333 20-972): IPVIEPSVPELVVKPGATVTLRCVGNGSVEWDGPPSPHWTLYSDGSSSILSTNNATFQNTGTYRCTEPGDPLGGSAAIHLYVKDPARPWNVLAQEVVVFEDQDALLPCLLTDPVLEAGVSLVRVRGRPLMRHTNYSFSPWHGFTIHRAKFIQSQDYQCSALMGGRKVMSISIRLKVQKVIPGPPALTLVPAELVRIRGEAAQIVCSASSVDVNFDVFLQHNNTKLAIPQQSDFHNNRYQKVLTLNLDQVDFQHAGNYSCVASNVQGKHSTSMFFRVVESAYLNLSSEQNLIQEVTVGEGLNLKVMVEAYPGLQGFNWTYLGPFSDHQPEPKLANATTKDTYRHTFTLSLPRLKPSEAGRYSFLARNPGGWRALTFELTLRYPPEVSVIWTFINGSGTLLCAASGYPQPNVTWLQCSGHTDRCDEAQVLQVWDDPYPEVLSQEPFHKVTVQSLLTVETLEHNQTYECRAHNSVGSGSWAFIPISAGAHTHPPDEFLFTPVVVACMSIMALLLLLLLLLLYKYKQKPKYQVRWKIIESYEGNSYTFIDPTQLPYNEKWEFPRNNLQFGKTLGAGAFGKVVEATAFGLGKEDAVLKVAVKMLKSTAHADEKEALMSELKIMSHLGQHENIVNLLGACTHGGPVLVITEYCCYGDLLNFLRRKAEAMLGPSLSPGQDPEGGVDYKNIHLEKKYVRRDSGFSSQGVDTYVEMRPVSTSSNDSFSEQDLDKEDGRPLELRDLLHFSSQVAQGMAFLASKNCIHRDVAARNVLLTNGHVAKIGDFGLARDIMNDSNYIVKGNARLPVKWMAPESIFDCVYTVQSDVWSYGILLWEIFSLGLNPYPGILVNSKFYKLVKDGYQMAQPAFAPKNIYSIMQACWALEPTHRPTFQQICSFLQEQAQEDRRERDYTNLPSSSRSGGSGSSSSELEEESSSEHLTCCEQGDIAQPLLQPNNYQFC

[7] = target: T7, Kit (Homo sapiens, UniProt P10721); assay: AlphaScreen kinase assay, Kit; details: read-out: IC50, activity toward kinase Kit
T7 construct: P1332.N6 BI PTP KIT M552-K948-X COD; His6 (N); made in house; host or cells: E. coli (PTP1B co-expressed)
T7 sequence (P10721 with tags, fused parts or gaps): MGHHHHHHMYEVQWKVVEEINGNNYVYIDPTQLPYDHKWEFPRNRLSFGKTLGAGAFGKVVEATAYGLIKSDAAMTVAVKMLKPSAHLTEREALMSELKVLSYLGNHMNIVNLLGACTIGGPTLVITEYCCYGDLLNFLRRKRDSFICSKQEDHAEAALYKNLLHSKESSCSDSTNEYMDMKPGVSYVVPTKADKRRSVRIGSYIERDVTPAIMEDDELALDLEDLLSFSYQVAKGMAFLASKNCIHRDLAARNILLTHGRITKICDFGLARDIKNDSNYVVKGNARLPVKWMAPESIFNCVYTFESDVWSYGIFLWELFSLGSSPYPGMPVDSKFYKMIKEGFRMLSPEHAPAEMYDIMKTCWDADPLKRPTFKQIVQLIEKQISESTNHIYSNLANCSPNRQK

[8] = target: T8, Ret (Homo sapiens, UniProt P07949); assay: AlphaScreen kinase assay, Ret; details: read-out: IC50, activity toward kinase Ret
T8 construct: P1378.pET-SF BI-PTP RET H661-R1012 HIS; made in house
T8 sequence (P07949 with tags, fused parts or gaps): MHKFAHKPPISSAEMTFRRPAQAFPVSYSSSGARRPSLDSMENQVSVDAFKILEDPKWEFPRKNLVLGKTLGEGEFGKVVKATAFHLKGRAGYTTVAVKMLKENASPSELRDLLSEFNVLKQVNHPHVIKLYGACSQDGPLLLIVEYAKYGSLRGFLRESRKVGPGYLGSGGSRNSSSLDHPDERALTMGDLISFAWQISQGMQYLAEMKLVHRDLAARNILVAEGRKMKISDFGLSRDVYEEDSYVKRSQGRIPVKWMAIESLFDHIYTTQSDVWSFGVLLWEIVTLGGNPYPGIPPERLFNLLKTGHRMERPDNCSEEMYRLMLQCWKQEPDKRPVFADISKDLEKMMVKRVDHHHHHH

Measured: IC50

T1 sequence (P15056 whole entry): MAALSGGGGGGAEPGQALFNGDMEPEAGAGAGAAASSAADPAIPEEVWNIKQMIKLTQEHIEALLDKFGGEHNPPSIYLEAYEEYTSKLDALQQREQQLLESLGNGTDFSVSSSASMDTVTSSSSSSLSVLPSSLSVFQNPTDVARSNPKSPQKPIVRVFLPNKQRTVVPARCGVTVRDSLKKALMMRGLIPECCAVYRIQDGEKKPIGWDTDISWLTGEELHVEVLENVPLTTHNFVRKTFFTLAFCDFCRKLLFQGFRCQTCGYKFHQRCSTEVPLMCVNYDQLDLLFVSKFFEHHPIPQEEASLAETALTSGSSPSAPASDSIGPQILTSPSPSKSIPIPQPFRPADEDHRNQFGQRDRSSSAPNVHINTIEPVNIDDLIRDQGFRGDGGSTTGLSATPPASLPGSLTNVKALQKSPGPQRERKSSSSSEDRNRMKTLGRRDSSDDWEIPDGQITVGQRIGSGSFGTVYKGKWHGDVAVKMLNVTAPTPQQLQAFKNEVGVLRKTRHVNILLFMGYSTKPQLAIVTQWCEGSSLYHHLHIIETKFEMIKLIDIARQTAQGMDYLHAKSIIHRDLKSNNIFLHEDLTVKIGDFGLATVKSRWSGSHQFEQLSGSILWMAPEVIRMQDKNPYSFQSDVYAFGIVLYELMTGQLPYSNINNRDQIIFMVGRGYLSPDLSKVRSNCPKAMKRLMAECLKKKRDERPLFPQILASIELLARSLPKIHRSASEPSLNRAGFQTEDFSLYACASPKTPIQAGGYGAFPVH

COc1cnc2[nH]cc(C(=O)c3c(F)ccc(NS(=O)(=O)c4ccc(C(F)(F)F)cc4)c3F)c2c1 [Compound P-1542, N-[2,4-Difluoro-3-(5-methoxy-1H-pyrrolo[2,3-b]pyridine-3-carbonyl)-phenyl]-4-trifluoromethyl-benzenesulfonamide]
not listed: [8]
≤ 10 µM: all other assays above

COc1cc(Cc2c[nH]c3ncc(-c4ccsc4)cc23)cc(OC)c1 [Compound P-0613]
not listed: [5] | [8]
≤ 10 µM: all other assays above

CCCS(=O)(=O)Nc1ccc(F)c(C(=O)c2c[nH]c3ncc(N4CCN(C)CC4)cc23)c1F [Compound P-1246, propane-1-sulfonic acid {2,4-difluoro-3-[5-(4-methyl-piperazin-1-yl)-1H-pyrrolo[2,3-b]pyridine-3-carbonyl]-phenyl}-amide]
not listed: [8]
≤ 10 µM: all other assays above

O=C(c1c(Cl)ccc(OCC(F)(F)F)c1F)c1c[nH]c2ncc(-c3cccnc3)cc12 [Compound P-1395, [6-Chloro-2-fluoro-3-(2,2,2-trifluoro-ethoxy)-phenyl]-(5-pyridin-3-yl-1H-pyrrolo[2,3-b]pyridin-3-yl)-methanone]
not listed: [8]
≤ 10 µM: all other assays above

COC(c1ccc(NCc2ccc(Cl)cc2)nc1)c1c[nH]c2ncc(-c3cccnc3)cc12 (stereo not shown) [Compound P-0939]
≤ 10 µM: [1] | [2] | [3] | [8]

COC(c1ccc(NCc2ccc(Cl)cc2)nc1)c1c[nH]c2ncc(-c3cccc(S(C)(=O)=O)c3)cc12 (stereo not shown) [Compound P-0998]
≤ 10 µM: [1] | [2] | [3] | [8]

O=C(c1c(F)ccc(NS(=O)(=O)c2ccccc2)c1F)c1c[nH]c2ncc(Br)cc12 [Compound P-0798, N-[3-(5-Bromo-1H-pyrrolo[2,3-b]pyridine-3-carbonyl)-2,4-difluoro-phenyl]-benzenesulfonamide]
not listed: [5] | [8]
≤ 10 µM: all other assays above

COc1cnc2[nH]cc(C(=O)c3c(F)ccc(NS(=O)(=O)c4cccc(F)c4)c3F)c2c1 [Compound P-1581, N-[2,4-Difluoro-3-(5-methoxy-1H-pyrrolo[2,3-b]pyridine-3-carbonyl)-phenyl]-3-fluoro-benzenesulfonamide]
not listed: [8]
≤ 10 µM: all other assays above

COc1ccc(F)c(C(=O)c2c[nH]c3ncc(Br)cc23)c1F [Compound P-1386, (5-Bromo-1H-pyrrolo[2,3-b]pyridin-3-yl)-(2,6-difluoro-3-methoxy-phenyl)-methanone]
not listed: [5] | [8]
≤ 10 µM: all other assays above

CS(=O)(=O)Nc1ccc(Cl)c(C(=O)c2c[nH]c3ncc(-c4cccc(S(C)(=O)=O)c4)cc23)c1F [Compound P-0841, N-{4-Chloro-2-fluoro-3-[5-(3-methanesulfonyl-phenyl)-1H-pyrrolo[2,3-b]pyridine-3-carbonyl]-phenyl}-methanesulfonamide]
≤ 10 µM: [1] | [2] | [3] | [4] | [8]

COCCOc1cnc2[nH]cc(C(=O)c3c(F)ccc(NS(=O)(=O)c4cccc(F)c4)c3F)c2c1 [Compound P-1871, N-{2,4-Difluoro-3-[5-(2-methoxy-ethoxy)-1H-pyrrolo[2,3-b]pyridine-3-carbonyl]-phenyl}-3-fluoro-benzenesulfonamide]
≤ 10 µM: [1] | [2] | [3] | [6] | [7]

O=C(c1c(F)ccc(NS(=O)(=O)c2ccc(C(F)(F)F)cc2)c1F)c1c[nH]c2ncc(Cl)cc12 [Compound P-1541, N-[3-(5-Chloro-1H-pyrrolo[2,3-b]pyridine-3-carbonyl)-2,4-difluoro-phenyl]-4-trifluoromethyl-benzenesulfonamide]
not listed: [4] | [8]
≤ 10 µM: all other assays above

CCc1cnc2[nH]cc(C(=O)c3c(F)ccc(NS(=O)(=O)c4ccc(C(F)(F)F)cc4)c3F)c2c1 [Compound P-1783, N-[3-(5-Ethyl-1H-pyrrolo[2,3-b]pyridine-3-carbonyl)-2,4-difluoro-phenyl]-4-trifluoromethyl-benzenesulfonamide]
≤ 10 µM: [1] | [2] | [3] | [6] | [7]

CCCS(=O)(=O)Nc1ccc(F)c(C(=O)c2c[nH]c3ncc(-c4ccc(N5CCN(C)CC5)nc4)cc23)c1F [Compound P-1882, Propane-1-sulfonic acid (2,4-difluoro-3-{5-[6-(4-methyl-piperazine-1-yl)-pyridin-3-yl]-1H-pyrrolo[2,3-b]pyridine-3-carbonyl}-phenyl)-amide]
≤ 10 µM: [1] | [2] | [3] | [6] | [7]

CC(=O)Nc1cccc(-c2cnc3[nH]cc(C(=O)c4cccc(C(F)(F)F)c4)c3c2)c1 [Compound P-1419, N-{3-[3-(3-Trifluoromethyl-benzoyl)-1H-pyrrolo[2,3-b]pyridin-5-yl]-phenyl}-acetamide]
not listed: [5] | [8]
≤ 10 µM: all other assays above

CS(=O)(=O)Nc1ccc(Cl)c(C(=O)c2c[nH]c3ncc(Br)cc23)c1F [Compound P-0868, N-[3-(5-Bromo-1H-pyrrolo[2,3-b]pyridine-3-carbonyl)-4-chloro-2-fluoro-phenyl]-methanesulfonamide]
≤ 10 µM: [1] | [2] | [3] | [4] | [5]
